From US11952364B2, “TRK inhibitors useful as anticancer drugs” (TYLIGAND BIOSCIENCE (SHANGHAI) LIMITED, priority 2018, dated 2024)
In brackets after ≈: the same amount, converted by molar mass. Read-outs that look alike come from different tables or passages of the source.

Assays:
[1] = Metabolic stability in liver microsomes; format: in vitro ADME, cynomolgus monkey; settings: pH 7.4, monkey liver microsomes; for half-life at 1 µM: read-out: T½
Source text: (§1) According to standard methods conventional in the art for in vitro metabolic stability studies, for example those protocols described in Kems, Edward H. and Di Li (2008). Drug-like Properties: Concepts. Structure Design and Methods: from ADME to Toxicity Optimization. San Diego: Academic Press; Di, Li et al., Optimization of a Higher Throughput Microsomal Stability Screening Assay for Profiling Drug Discovery Candidates, J. Biomol. Screen. 2003, 8(4), 453., the metabolic stability test in liver microsomes of the present compound was performed analogously as follows.
(§2) The in vitro metabolic stability of the compound in 5 species (mouse, rat, dog, monkey, and human) was evaluated by liver microsomal stability test. 0.1M potassium phosphate buffer solution (pH 7.4, containing 1.0 mM EDTA) was prepared. The test compound and the control compound were prepared into a 10 mM DMSO solution, and then 10 μL of the 10 mM DMSO compound solution was added to 190 μL of acetonitrile to prepare a 500 μM compound solution. Liver microsomes (Sekisui XenoTech, LLC., human liver microsomes, cat. #H0610; Beagle dog liver microsomes, cat. #D1000; cynomolgus monkey liver microsomes, cat. #P2073; rat liver microsomes, cat. #R1073; mouse Liver microsomes, cat. #M1000) were taken and slowly melted on ice, then 18.75 μL of the liver microsome solution (20 mg/mL) and 1.5 μL of 500 μM compound solution were added to 479.75 μL of 0.1M potassium phosphate buffer solution to prepare a 0.75 mg/mL liver microsome working solution with a concentration of 1.5 μM compound. 6 mM NADPH (SIGMA, cat. #V900362) aqueous solution was prepared. 0.2 mL 2 mg/mL internal standard stock solution (imipramine solution in acetonitrile) was added to 1000 mL acetonitrile (SIGMA, cat. #271004) to prepare the reaction stop solution and stored at 4° C.
Six deep-well plates were labeled as T0, T5, T15, T30, T45 and NCF60 (negative control, without NADPH). 30 μL of […] control compound or test compound solution in 0.75 mg/mL liver microsome working solution was added to each well of the corresponding plates. After being sealed with film, all the microplates were placed in a 37° C. water bath to preheat for 5 minutes, and 6 mM NADPH solution was placed in a 37° C. water bath to preheat for 5 minutes. Then 15 μL of NADPH solution was added to each cell successively in reverse time order, that is, first adding the T45 plate, 15 minutes later the T30 plate, 15 minutes later again the T15 plate, and 10 minutes later gain the T5 plate. […]
(§3) The natural logarithm of the residue percentage at each time point was subjected to linearly regression as a factor of incubation time to obtain Slope k, and then the liver microsome clearance rate (CLint^mic) and in vitro half-life (T½) were calculated according to the following formula: […]

[2] = Metabolic stability in liver microsomes; format: in vitro ADME; settings: pH 7.4; for half-life at 1 µM: read-out: T½
Source text: as §1, §2
Six deep-well plates were labeled as T0, T5, T15, T30, T45 and NCF60 (negative control, without NADPH). 30 μL of […] control compound or test compound solution in 0.75 mg/mL liver microsome working solution was added to each well of the corresponding plates. After being sealed with film, all the microplates were placed in a 37° C. water bath to preheat for 5 minutes, and 6 mM NADPH solution was placed in a 37° C. water bath to preheat for 5 minutes. Then 15 μL of NADPH solution was added to each cell successively in reverse time order, that is, first adding the T45 plate, 15 minutes later the T30 plate, 15 minutes later again the T15 plate, and 10 minutes later gain the T5 plate. NCF60 plate was not added with NADPH but 15 μL of deionized water. At this time, to the TO plate were added 135 μL of ice-cooled reaction stop solution and 15 μL of NADPH solution. By the end of the reaction, 135 μL of ice-precooled reaction stop solution was added successively to each well of the T5, T15, T30, and T45 plates. All samples were centrifuged at 4° C. at 600 rpm for 10 minutes, and then at 5594 g for 15 minutes (Thermo Multifugex 3R). Six 96-well plates were respectively labeled and added 50 μL of ultrapure water (Millipore, ZMQS50F01) to each well, then 50 μL of the centrifuged supernatant was added to the corresponding well of the corresponding plate, for LC-MS/MS-014 (API4000), UPLC-MS/MS-11 (API4000), LC-MS/MS-034 (API-6500+) analysis. The concentration (C0) of the test compound at TO time point was taken as 100%, and the concentrations at other incubation time points were converted into residue percentages.
as §3

[3] = Solubility in simulated fluids and PBS; format: physicochemical; settings: for solubility: thermodynamic from solid, 25° C.
Source text: According to the well-known standard methods conventional in the art for solubility determination, for example those described in Kems, Edward H. and Di Li (2008). Drug-like Properties: Concepts, Structure Design and Methods: from ADME to Toxicity Optimization. San Diego: Academic Press), the solubility properties of the compounds of the present disclosure were investigated as follows, in testing systems of FaSSGF (pH 1.6) (Biorelevant, Fasted State Simulated gastric fluids), FeSSIF (pH 5.8) (Biorelevant, Fed State Simulated Intestinal Fluid), FaSSIF (pH 6.5) (Biorelevant, Fasted State Simulated Intestinal Fluid) and PBS buffer (Hyclone, Cat No. SH30256.01B).
Accurately weighed ˜1 mg of test compound dry powder was charged into a glass bottle, and added an appropriate volume of each of the above test system solutions, to prepare a 4 mg/mL working solution. The sample bottle was placed on a shaker at room temperature (25° C.) and shook at 1000 rpm for 1 hour, then stood overnight for equilibrium. All samples were centrifuged at 12000 rpm at 25° C. for 10 minutes. Solutions of different concentrations for each compound were prepared in DMSO as the standard solutions. 580 μL of 20% (v/v) acetonitrile aqueous solution (containing 40 ng/mL tolbutamide as internal standard) was added into each well of three microplates, and mixed uniformly. 20 μL of 4 mg/mL working solution or standard solution was added to the wells of the first microplate and mixed uniformly, from which 20 μL was taken and added to the corresponding well of the second microplate, and mixed uniformly, from which again 20 μL was taken from each well and added to the corresponding wells of the third microplate, and mixed uniformly. Mass spectrometry was adopted to analyze the samples (LC-MS/MS-014, API4000), a standard curve was developed based on the concentrations of the standard solutions, and the solubility of the test compound was calculated.

[4] = PBS buffer, aqueous buffer, PBS pH 7.4, read-out: Solubility PBS (pH 7.4)
[5] = fassgf or other biorelevant, FaSSGF pH 1.6, read-out: Solubility FaSSGF (pH 1.6)
[6] = FaSSIF pH 6.5, read-out: Solubility FaSSIF (pH 6.5)
[7] = FeSSIF pH 5.8, read-out: Solubility FeSSEF (pH 5.8)

CLint scaled at 1 µM [1] [mL/min/kg] | half-life at 1 µM [1] [h] | CLint scaled at 1 µM ([2]; Beagle, dog liver microsomes) [mL/min/kg] | half-life at 1 µM ([2]; Beagle, dog liver microsomes) [h] | CLint scaled at 1 µM ([2]; human liver microsomes) [mL/min/kg] | half-life at 1 µM ([2]; human liver microsomes) [h] | CLint scaled at 1 µM ([2]; mouse liver microsomes) [mL/min/kg] | half-life at 1 µM ([2]; mouse liver microsomes) [h] | CLint scaled at 1 µM ([2]; rat liver microsomes) [mL/min/kg] | half-life at 1 µM ([2]; rat liver microsomes) [h] | solubility [3, 4] [µg/mL] | solubility [3, 5] [µg/mL] | solubility [3, 6] [µg/mL] | solubility [3, 7] [µg/mL] | SMILES | solubility compared with Merestinib ([3]; statement in words)
36.2 | 0.933 | 46.5 | 1.24 | 6.03 | 4.81 | 63.3 | 0.653 | 74.4 | 1.22 | 0.01 (≈ 0.0176 µM) | 27.7 (≈ 48.7 µM) | 5.47 (≈ 9.62 µM) | 53.3 (≈ 93.7 µM) | COc1ccc(C(=O)Nc2ccc(Oc3cc4cnn(C)c4cc3-c3cn[nH]c3)c(F)c2)c(=O)n1-c1ccc(F)cc1 [Example 12, N-(3-fluoro-4-(1-methyl-6-(1H-pyrazol-4-yl)-1H-indazol-5-yloxy)phenyl)-1-(4-fluorophenyl)-6-methoxy-2-oxo-1,2-dihydropyridine-3-carboxamide] | significantly improved solubility as compared with Merestinib
81 | 0.417 | 38.4 | 1.5 | 22 | 1.32 | 90.3 | 0.459 | 105 | 0.867 | 0.02 (≈ 0.0362 µM) | 19.3 (≈ 34.9 µM) | 3.07 (≈ 5.56 µM) | 33.7 (≈ 61 µM) | Cc1ccc(C(=O)Nc2ccc(Oc3cc4cnn(C)c4cc3-c3cn[nH]c3)c(F)c2)c(=O)n1-c1ccc(F)cc1 [Merestinib, reference compound] | –
